From the OligoGym collection
Several values for one entry are separate records, joined by “and”; a condition that tells them apart may be missing. Equal entries are not always repeated. After the bases stand the sugars from the 5' end (letter, count) and the backbone: PS all phosphorothioate, else s phosphorothioate and o phosphodiester by linkage. Methylation of C is not given here. e = 2'-O-(2-methoxyethyl) (MOE); k = constrained ethyl (cEt); d = 2'-deoxy (DNA)

Target: SOD1
Settings: ASO

Work on “TTTAATGTTTATCAGGAT (sugars e5 d8 e5, linkages s1 o3 s9 o2 s2)” yielded a target mRNA inhibition (A431, 0.12 µM) of 13%, a target mRNA inhibition (A431, 0.6 µM) of 19% and a target mRNA inhibition (A431, 3 µM) of 22%. For the same sequence, the target mRNA inhibition (A431, 15 µM) was 7%, the target mRNA inhibition (HepG2, 0.222 µM) was 10% and the target mRNA inhibition (HepG2, 0.667 µM) was 24%. For the same sequence, the target mRNA inhibition (HepG2, 2 µM) was 28% and the target mRNA inhibition (HepG2, 6 µM) was 53%.

“CCAGACCTCCGCGCCTCGCC (sugars e5 d10 e5, PS)” gave a target mRNA inhibition (HepG2, 4 µM) of 46%.

In the case of “TAATAAGTGCCATACAG (sugars e2 k2 d8 k2 e3, PS)”, the target mRNA inhibition (HepG2, 5 µM) was 22%.

Sequence “AATCTTCCAAGTGATCA (sugars e2 k2 d8 k2 e3, PS)” has a target mRNA inhibition (HepG2, 5 µM) of 19%.

Sequence “CAGGTCATTGAAACAGA (sugars e3 k2 d7 k2 e3, PS)” has a target mRNA inhibition (HepG2, 3 µM) of 14%.

“ATGTTTATCAGGATACA (sugars e2 k2 d9 k2 e2, PS)” gave a target mRNA inhibition (HepG2, 0.1875 µM) of 27%, a target mRNA inhibition (HepG2, 0.75 µM) of 65% and a target mRNA inhibition (HepG2, 3 µM) of 88%. It also gave a target mRNA inhibition (HepG2, 4 µM) of 81% and a target mRNA inhibition (HepG2, 12 µM) of 96%.

“ATGCAGGCCTTCAGTCA (sugars e3 k2 d7 k2 e3, PS)” was tested, and the target mRNA inhibition (HepG2, 3 µM) was 37%.

In the case of “GTCGCCCTTCAGCACGC (sugars e2 k2 d8 k2 e3, PS)”, the target mRNA inhibition (HepG2, 4 µM) was 60%.

In the case of “CAGTGTTTAATGTTTAT (sugars e3 k2 d7 k2 e3, PS)”, the target mRNA inhibition (HepG2, 3 µM) was 54%.

In the case of “AGATCACAGAATCTTCAATA (sugars e5 d10 e5, PS)”, the target mRNA inhibition (HepG2, 5 µM) was 14% and 29%.

“CTACAGCTAGCAGGATA (sugars e2 k2 d8 k2 e3, PS)” showed a target mRNA inhibition (HepG2, 0.1875 µM) of 40%, a target mRNA inhibition (HepG2, 0.75 µM) of 79% and a target mRNA inhibition (HepG2, 3 µM) of 89%. For the same sequence, the target mRNA inhibition (HepG2, 4 µM) was 87% and the target mRNA inhibition (HepG2, 12 µM) was 94%.

“CTTTCCTTCTGCTCGAA (sugars e3 k2 d7 k2 e3, PS)” was tested, and the target mRNA inhibition (HepG2, 3 µM) was 0%.

For “GATACATTTCTACAGC (sugars ekddddddddekekee, linkages s1 o1 s8 o3 s2)”, the target mRNA inhibition (A431, 0.12 µM) was 0%, the target mRNA inhibition (A431, 0.6 µM) was 0% and the target mRNA inhibition (A431, 3 µM) was 0%. It also gave a target mRNA inhibition (A431, 15 µM) of 18%, a target mRNA inhibition (HepG2, 0.222 µM) of 40% and a target mRNA inhibition (HepG2, 0.667 µM) of 60%. The target mRNA inhibition (HepG2, 2 µM) was 80% and the target mRNA inhibition (HepG2, 6 µM) was 93%.

“TAAGTGCCATACAGGGT (sugars e2 k2 d9 k2 e2, PS)” showed a target mRNA inhibition (HepG2, 5 µM) of 35%.

“TTCTACAGCTAGCAGGA (sugars e2 k2 d8 k2 e3, PS)” showed a target mRNA inhibition (HepG2, 0.1875 µM) of 18%, a target mRNA inhibition (HepG2, 0.75 µM) of 48% and a target mRNA inhibition (HepG2, 3 µM) of 66%. It also gave a target mRNA inhibition (HepG2, 4 µM) of 74% and a target mRNA inhibition (HepG2, 12 µM) of 86%.

For “ACCAGTGTGCGGCCAATGAT (sugars e5 d10 e5, PS)”, the target mRNA inhibition (HepG2, 5 µM) was 0%.

“TCTTCCAAGTGATCATAAAT (sugars e5 d10 e5, PS)” was tested, and the target mRNA inhibition (HepG2, 5 µM) was 12%.

In the case of “AGTGTTTAATGTTTATC (sugars e2 k2 d8 k2 e3, PS)”, the target mRNA inhibition (HepG2, 0.1875 µM) was 46%, the target mRNA inhibition (HepG2, 0.75 µM) was 74% and the target mRNA inhibition (HepG2, 3 µM) was 84%. For the same sequence, the target mRNA inhibition (HepG2, 5 µM) was 88% and the target mRNA inhibition (HepG2, 12 µM) was 81%.

“CCGCGCCTCGCCCACTCTGG (sugars e5 d10 e5, PS)” gave a target mRNA inhibition (HepG2, 4 µM) of 27%.

For “GTTTTTATTCACAGGCT (sugars e3 k2 d7 k2 e3, PS)”, the target mRNA inhibition (HepG2, 3 µM) was 10%.

For “TGGCAAAATACAGGTCA (sugars e3 k2 d7 k2 e3, PS)”, the target mRNA inhibition (HepG2, 3 µM) was 26%.

With “CTCCAACATGCCTCTCT (sugars e3 k2 d7 k2 e3, PS)” the target mRNA inhibition (HepG2, 3 µM) was 5%.

“ATGTTTATCAGGATAC (sugars ekddddddddekekee, linkages s1 o1 s8 o3 s2)” showed a target mRNA inhibition (A431, 0.12 µM) of 0%, a target mRNA inhibition (A431, 0.6 µM) of 7% and a target mRNA inhibition (A431, 3 µM) of 26%. The target mRNA inhibition (A431, 15 µM) was 59%, the target mRNA inhibition (HepG2, 0.222 µM) was 64% and the target mRNA inhibition (HepG2, 0.667 µM) was 81%. For the same sequence, the target mRNA inhibition (HepG2, 2 µM) was 90% and the target mRNA inhibition (HepG2, 6 µM) was 94%.

Sequence “AGTTTAATACCCATCTG (sugars e2 k2 d9 k2 e2, PS)” has a target mRNA inhibition (HepG2, 5 µM) of 43%.

In the case of “GTGCCATACAGGGTTTT (sugars e2 k2 d9 k2 e2, PS)”, the target mRNA inhibition (HepG2, 5 µM) was 28%.

“AAACAGACATTTTAACTGAG (sugars e5 d10 e5, PS)” showed a target mRNA inhibition (HepG2, 5 µM) of 4%.

With “CAGAATCTTCAATAGACACA (sugars e5 d10 e5, PS)” the target mRNA inhibition (HepG2, 5 µM) was 17% and 0%.

For “GGATAACAGATGAGTTA (sugars e2 k2 d9 k2 e2, PS)”, the target mRNA inhibition (HepG2, 4 µM) was 63%.
